In the supplement of paper PMC11208160:

assay: recombinant UMI read abundance after kanamycin selection (control-corrected) (log10(CPM+1)); higher = more efficient recombination; extreme values may be limits of the assay; sequences stand for … in AGTGCAGAGAAAATCGGCCAGTTTTCTCTGCCTGCAGTCCGCATGCCGTGGGACCCCTTGGGTTCTAACCTGTTGCCTAGATTTATGCAGCGGACTGCCTTTCTCCCAAAGTGATAAACCGG…AGGTTGGTTTCACT; site = the 11-nt donor
Procedure, shortened: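 Under IPTG (0.07 mM) plus kanamycin, or without selection, Escherichia coli carrying a UMI-tagged donor and donor-binding-loop pair library and a target plasmid for the IS621 bridge recombinase were plated in two replicates. Recombinant UMIs were PCR-amplified across the donor–target junction and sequenced. Counts were converted to CPM, averaged over replicates, scaled by control-derived factors and reported as log10(CPM+1).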
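Further: IS621 bridge recombinase in Escherichia coli cells against a fixed T5 target plasmid.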

Row | Sequence | recombinant UMI read abundance (log10)
1 | GGGGCCCCATGGACCGGTTTTCCCGGTAATCCGTATTTGGC (site GGGGCCCCTGC) | 0
2 | GGGGCGCCATGGACCGGTTTTCCCGGTAATCCGTATTTGCA (site GGGGCACCTTG) | 0.0167
3 | GGGGCGCCATGGACCGGTTTTCCCGGTAATCCGTATTTGCA (site GGGGCCCCTTG) | 0
4 | GGGGCGCCATGGACCGGTTTTCCCGGTAATCCGTATTTGCA (site GGGGCGCCTTG) | 0.0101
5 | GGGGCGCCATGGACCGGTTTTCCCGGTAATCCGTATTTGCA (site GGGGCTCCTTG) | 0
6 | GGGGCTCCATGGACCGGTTTTCCCGGTAATCCGTATTTGCA (site GGGGCACCTTG) | 0.0623
7 | GGGGCTCCATGGACCGGTTTTCCCGGTAATCCGTATTTGCA (site GGGGCCCCTTG) | 0.407
8 | GGGGCTCCATGGACCGGTTTTCCCGGTAATCCGTATTTGCA (site GGGGCGCCTTG) | 0.0195
9 | GGGGCTCCATGGACCGGTTTTCCCGGTAATCCGTATTTGCA (site GGGGCTCCTTG) | 1.13
10 | GGGGTAGCATGGACCGGTTTTCCCGGTAATCCGTATTTGTC (site GGGGTAGCTGA) | 2.71
11 | GGGTAATCATGGACCGGTTTTCCCGGTAATCCGTATTTGAT (site GGGTAATCTAT) | 3.04
12 | GGGTACGCATGGACCGGTTTTCCCGGTAATCCGTATTTGTA (site GGGTACGCTTA) | 2.47
13 | GGGTAGACATGGACCGGTTTTCCCGGTAATCCGTATTTGCC (site GGATAGACTGG) | 2.81
14 | GGGTAGACATGGACCGGTTTTCCCGGTAATCCGTATTTGCC (site GGCTAGACTGG) | 0
15 | GGGTAGACATGGACCGGTTTTCCCGGTAATCCGTATTTGCC (site GGGTAGACTGG) | 2.39
16 | GGGTAGACATGGACCGGTTTTCCCGGTAATCCGTATTTGCC (site GGTTAGACTGG) | 0.949
17 | GGTAATTCATGGACCGGTTTTCCCGGTAATCCGTATTTGGT (site GGTAATTCTAC) | 1.18
18 | GGTACATCATGGACCGGTTTTCCCGGTAATCCGTATTTGTT (site GGTACATCTAA) | 0.0632
19 | GGTACATCATGGACCGGTTTTCCCGGTAATCCGTATTTGTT (site GGTACCTCTAA) | 0.00401
20 | GGTACATCATGGACCGGTTTTCCCGGTAATCCGTATTTGTT (site GGTACGTCTAA) | 0.0133
21 | GGTACATCATGGACCGGTTTTCCCGGTAATCCGTATTTGTT (site GGTACTTCTAA) | 0.00584
22 | GGTACGTCATGGACCGGTTTTCCCGGTAATCCGTATTTGGA (site GGTACGTCTTC) | 0.695
23 | GGTACTCCATGGACCGGTTTTCCCGGTAATCCGTATTTGTA (site GGTACTCCTTA) | 0.301
24 | GGTACTGCATGGACCGGTTTTCCCGGTAATCCGTATTTGGA (site GGTACTGCTTC) | 0.135
25 | GGTACTTCATGGACCGGTTTTCCCGGTAATCCGTATTTGTT (site GGTACATCTAA) | 0.0111
26 | GGTACTTCATGGACCGGTTTTCCCGGTAATCCGTATTTGTT (site GGTACCTCTAA) | 0.0128

Row | Sequence | recombinant UMI read abundance (log10)
27 | GGTACTTCATGGACCGGTTTTCCCGGTAATCCGTATTTGTT (site GGTACGTCTAA) | 0.011
28 | GGTACTTCATGGACCGGTTTTCCCGGTAATCCGTATTTGTT (site GGTACTTCTAA) | 0.456
29 | GGTAGGTCATGGACCGGTTTTCCCGGTAATCCGTATTTGTT (site GGTAAGTCTAA) | 0.00393
30 | GGTAGGTCATGGACCGGTTTTCCCGGTAATCCGTATTTGTT (site GGTACGTCTAA) | 0.0163
31 | GGTAGGTCATGGACCGGTTTTCCCGGTAATCCGTATTTGTT (site GGTAGGTCTAA) | 0.00338
32 | GGTAGGTCATGGACCGGTTTTCCCGGTAATCCGTATTTGTT (site GGTATGTCTAA) | 0.0159
33 | GGTAGTGCATGGACCGGTTTTCCCGGTAATCCGTATTTGCC (site GGTAGTGCTGG) | 1.61
34 | GGTATGGCATGGACCGGTTTTCCCGGTAATCCGTATTTGCA (site GGTATGGCTTG) | 1.9
35 | GGTCATCCATGGACCGGTTTTCCCGGTAATCCGTATTTGAA (site GGTCATCCTTT) | 0.0104
36 | GGTCATTCATGGACCGGTTTTCCCGGTAATCCGTATTTGTG (site GGTCATTCTCA) | 1.05
37 | GGTCCAACATGGACCGGTTTTCCCGGTAATCCGTATTTGAA (site GGTCCAACTTA) | 0.0074
38 | GGTCCAACATGGACCGGTTTTCCCGGTAATCCGTATTTGAA (site GGTCCAACTTC) | 0.00549
39 | GGTCCAACATGGACCGGTTTTCCCGGTAATCCGTATTTGAA (site GGTCCAACTTG) | 0
40 | GGTCCAACATGGACCGGTTTTCCCGGTAATCCGTATTTGAA (site GGTCCAACTTT) | 0.0109
41 | GGTCCAACATGGACCGGTTTTCCCGGTAATCCGTATTTGTT (site GGTCCAACTAA) | 0.0107
42 | GGTCCAACATGGACCGGTTTTCCCGGTAATCCGTATTTGTT (site GGTCCAACTCA) | 0.0106
43 | GGTCCAACATGGACCGGTTTTCCCGGTAATCCGTATTTGTT (site GGTCCAACTGA) | 0.00734
44 | GGTCCAACATGGACCGGTTTTCCCGGTAATCCGTATTTGTT (site GGTCCAACTTA) | 0.0123
45 | GGTCCGACATGGACCGGTTTTCCCGGTAATCCGTATTTGTA (site GGTCCAACTTA) | 0.0275
46 | GGTCCGACATGGACCGGTTTTCCCGGTAATCCGTATTTGTA (site GGTCCCACTTA) | 0.00256
47 | GGTCCGACATGGACCGGTTTTCCCGGTAATCCGTATTTGTA (site GGTCCGACTTA) | 0.0268
48 | GGTCCGACATGGACCGGTTTTCCCGGTAATCCGTATTTGTA (site GGTCCTACTTA) | 0.0182
49 | GGTCCGGCATGGACCGGTTTTCCCGGTAATCCGTATTTGTC (site GGTCCGGCTGA) | 0
50 | GGTCCTACATGGACCGGTTTTCCCGGTAATCCGTATTTGTA (site GGTCCAACTTA) | 0.00723
51 | GGTCCTACATGGACCGGTTTTCCCGGTAATCCGTATTTGTA (site GGTCCCACTTA) | 0.0198
52 | GGTCCTACATGGACCGGTTTTCCCGGTAATCCGTATTTGTA (site GGTCCGACTTA) | 0.0128
